The text below walks through data of patent US11492346B2, “Benzisoxazole sulfonamide derivatives” (Pfizer Inc., priority 2019, dated 2022).

Read-outs that look alike come from different tables or passages of the source.

What all share (type): biochemical
One experiment addresses KAT6A (Homo sapiens (Human), UniProt Q92794). Nature of the experiment: KAT assay (SAMDI mass spectrometry), KAT6A.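 Also: Baculovirus-expressed KAT6A acetylating histone H3 (1-21) peptide (2 µM), 30-60 min at room temperature, % product conversion fitted to Morrison equation for tight-binding competitive inhibitors.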
The target of the next experiment is KAT6B (Homo sapiens (Human), UniProt Q8WYB5). Nature of the experiment: KAT assay (SAMDI mass spectrometry), KAT6B.
Another experiment addresses KAT5 (Homo sapiens (Human), UniProt Q92993). Nature of the experiment: KAT assay (SAMDI mass spectrometry), KAT5.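 Also: Baculovirus-expressed KAT5 acetylating a histone H4 peptide at room temperature, read as percent conversion to product, Ki from a Morrison tight-binding competitive fit.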 The following applies: read-out: KAT5 Ki at 1 μM AcCoA.
A further experiment deals with KAT7 (Homo sapiens (Human), UniProt O95251). Nature of the experiment: KAT assay (SAMDI mass spectrometry), KAT7.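 Also: Baculovirus-expressed enzyme acetylating a histone peptide at room temperature, percent conversion from product and substrate peak areas, Ki from a Morrison tight-binding competitive fit.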 The following applies: read-out: KAT7 Ki at 1 μM AcCoA.
The target of another experiment is KAT8 (Homo sapiens (Human), UniProt Q9H7Z6). The experiment is described as follows: KAT assay (SAMDI mass spectrometry), KAT8. The following applies: read-out: KAT8 Ki at 1 μM AcCoA.
Where [1] appears, read: read-out: KAT6a Ki at 1 μM AcCoA, 1 μM AcCoA.
Where [2] appears, read: read-out: KAT6a Ki at 10 μM AcCoA, 10 μM AcCoA.
Setting [3] is: 25 μM AcCoA, read-out: KAT6b Ki at 25 μM AcCoA.
The mark [4] stands for this setting: read-out: KAT6b Ki at 1 μM AcCoA, 1 μM AcCoA.

KAT7, sequence (O95251 whole entry): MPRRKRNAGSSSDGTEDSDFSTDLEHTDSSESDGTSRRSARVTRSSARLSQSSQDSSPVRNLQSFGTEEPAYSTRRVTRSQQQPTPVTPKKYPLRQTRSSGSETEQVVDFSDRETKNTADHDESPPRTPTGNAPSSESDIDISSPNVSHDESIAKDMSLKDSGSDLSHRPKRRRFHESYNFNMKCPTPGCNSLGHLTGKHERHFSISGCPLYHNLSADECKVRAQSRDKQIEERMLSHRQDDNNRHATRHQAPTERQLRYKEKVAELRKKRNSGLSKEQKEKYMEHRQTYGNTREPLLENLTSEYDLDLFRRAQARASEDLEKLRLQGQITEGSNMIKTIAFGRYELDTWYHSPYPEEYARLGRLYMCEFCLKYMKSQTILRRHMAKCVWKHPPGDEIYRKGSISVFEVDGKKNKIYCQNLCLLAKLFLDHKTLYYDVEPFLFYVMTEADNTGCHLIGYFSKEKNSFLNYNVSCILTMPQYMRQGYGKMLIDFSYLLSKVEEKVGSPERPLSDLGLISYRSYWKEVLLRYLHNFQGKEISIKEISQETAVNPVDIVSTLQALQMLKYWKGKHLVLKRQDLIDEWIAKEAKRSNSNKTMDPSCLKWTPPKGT
KAT6B, sequence (Q8WYB5 whole entry): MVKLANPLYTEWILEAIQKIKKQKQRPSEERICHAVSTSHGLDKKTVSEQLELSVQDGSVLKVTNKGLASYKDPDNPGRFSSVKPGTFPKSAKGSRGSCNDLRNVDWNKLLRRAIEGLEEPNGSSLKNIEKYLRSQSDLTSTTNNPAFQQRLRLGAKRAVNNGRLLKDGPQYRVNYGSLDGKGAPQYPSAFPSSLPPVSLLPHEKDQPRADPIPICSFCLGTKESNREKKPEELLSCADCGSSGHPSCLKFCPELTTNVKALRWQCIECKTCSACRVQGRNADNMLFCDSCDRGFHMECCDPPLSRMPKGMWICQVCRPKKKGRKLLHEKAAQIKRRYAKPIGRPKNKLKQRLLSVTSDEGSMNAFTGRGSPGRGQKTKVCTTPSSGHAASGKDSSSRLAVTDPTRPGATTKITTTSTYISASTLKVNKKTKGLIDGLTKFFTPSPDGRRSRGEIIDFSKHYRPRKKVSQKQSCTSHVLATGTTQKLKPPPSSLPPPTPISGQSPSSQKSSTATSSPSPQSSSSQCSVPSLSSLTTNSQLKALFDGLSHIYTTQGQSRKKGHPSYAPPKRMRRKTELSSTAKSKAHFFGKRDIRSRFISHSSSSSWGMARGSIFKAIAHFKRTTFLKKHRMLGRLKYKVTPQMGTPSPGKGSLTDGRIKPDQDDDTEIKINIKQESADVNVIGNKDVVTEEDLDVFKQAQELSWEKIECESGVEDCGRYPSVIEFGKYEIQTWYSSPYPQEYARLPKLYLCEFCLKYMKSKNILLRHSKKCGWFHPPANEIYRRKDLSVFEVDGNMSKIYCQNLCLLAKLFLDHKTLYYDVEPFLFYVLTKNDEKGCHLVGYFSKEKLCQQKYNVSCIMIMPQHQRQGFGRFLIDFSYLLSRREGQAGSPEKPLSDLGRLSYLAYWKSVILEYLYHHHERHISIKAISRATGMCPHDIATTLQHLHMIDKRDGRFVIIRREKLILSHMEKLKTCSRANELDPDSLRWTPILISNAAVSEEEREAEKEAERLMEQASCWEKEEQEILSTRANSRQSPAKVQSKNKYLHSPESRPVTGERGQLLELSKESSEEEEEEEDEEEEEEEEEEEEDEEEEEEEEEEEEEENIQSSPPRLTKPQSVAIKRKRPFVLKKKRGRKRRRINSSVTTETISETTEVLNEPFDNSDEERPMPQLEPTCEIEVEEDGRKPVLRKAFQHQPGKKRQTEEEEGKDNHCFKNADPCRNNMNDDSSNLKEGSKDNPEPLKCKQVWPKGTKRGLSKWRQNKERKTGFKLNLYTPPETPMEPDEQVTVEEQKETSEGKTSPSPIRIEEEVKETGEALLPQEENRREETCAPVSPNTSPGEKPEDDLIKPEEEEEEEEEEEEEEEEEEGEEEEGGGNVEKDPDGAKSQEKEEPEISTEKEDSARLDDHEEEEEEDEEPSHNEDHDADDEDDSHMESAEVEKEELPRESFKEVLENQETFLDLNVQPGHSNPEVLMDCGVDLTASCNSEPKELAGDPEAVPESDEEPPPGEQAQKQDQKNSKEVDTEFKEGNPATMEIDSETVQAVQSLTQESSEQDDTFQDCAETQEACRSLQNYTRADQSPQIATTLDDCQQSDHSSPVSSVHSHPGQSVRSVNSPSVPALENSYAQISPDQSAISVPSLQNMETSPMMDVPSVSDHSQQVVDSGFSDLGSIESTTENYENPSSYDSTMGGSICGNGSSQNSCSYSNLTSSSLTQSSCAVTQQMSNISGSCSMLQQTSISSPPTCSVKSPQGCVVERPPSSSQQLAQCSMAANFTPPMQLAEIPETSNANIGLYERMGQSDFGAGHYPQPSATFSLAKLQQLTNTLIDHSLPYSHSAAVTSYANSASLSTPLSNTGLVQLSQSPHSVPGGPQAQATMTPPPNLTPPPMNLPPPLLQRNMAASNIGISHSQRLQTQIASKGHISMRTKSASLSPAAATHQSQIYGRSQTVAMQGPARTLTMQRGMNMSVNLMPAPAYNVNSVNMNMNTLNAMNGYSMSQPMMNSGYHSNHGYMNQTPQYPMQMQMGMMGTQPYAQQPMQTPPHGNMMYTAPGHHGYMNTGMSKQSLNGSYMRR
KAT6A, sequence (Q92794 whole entry): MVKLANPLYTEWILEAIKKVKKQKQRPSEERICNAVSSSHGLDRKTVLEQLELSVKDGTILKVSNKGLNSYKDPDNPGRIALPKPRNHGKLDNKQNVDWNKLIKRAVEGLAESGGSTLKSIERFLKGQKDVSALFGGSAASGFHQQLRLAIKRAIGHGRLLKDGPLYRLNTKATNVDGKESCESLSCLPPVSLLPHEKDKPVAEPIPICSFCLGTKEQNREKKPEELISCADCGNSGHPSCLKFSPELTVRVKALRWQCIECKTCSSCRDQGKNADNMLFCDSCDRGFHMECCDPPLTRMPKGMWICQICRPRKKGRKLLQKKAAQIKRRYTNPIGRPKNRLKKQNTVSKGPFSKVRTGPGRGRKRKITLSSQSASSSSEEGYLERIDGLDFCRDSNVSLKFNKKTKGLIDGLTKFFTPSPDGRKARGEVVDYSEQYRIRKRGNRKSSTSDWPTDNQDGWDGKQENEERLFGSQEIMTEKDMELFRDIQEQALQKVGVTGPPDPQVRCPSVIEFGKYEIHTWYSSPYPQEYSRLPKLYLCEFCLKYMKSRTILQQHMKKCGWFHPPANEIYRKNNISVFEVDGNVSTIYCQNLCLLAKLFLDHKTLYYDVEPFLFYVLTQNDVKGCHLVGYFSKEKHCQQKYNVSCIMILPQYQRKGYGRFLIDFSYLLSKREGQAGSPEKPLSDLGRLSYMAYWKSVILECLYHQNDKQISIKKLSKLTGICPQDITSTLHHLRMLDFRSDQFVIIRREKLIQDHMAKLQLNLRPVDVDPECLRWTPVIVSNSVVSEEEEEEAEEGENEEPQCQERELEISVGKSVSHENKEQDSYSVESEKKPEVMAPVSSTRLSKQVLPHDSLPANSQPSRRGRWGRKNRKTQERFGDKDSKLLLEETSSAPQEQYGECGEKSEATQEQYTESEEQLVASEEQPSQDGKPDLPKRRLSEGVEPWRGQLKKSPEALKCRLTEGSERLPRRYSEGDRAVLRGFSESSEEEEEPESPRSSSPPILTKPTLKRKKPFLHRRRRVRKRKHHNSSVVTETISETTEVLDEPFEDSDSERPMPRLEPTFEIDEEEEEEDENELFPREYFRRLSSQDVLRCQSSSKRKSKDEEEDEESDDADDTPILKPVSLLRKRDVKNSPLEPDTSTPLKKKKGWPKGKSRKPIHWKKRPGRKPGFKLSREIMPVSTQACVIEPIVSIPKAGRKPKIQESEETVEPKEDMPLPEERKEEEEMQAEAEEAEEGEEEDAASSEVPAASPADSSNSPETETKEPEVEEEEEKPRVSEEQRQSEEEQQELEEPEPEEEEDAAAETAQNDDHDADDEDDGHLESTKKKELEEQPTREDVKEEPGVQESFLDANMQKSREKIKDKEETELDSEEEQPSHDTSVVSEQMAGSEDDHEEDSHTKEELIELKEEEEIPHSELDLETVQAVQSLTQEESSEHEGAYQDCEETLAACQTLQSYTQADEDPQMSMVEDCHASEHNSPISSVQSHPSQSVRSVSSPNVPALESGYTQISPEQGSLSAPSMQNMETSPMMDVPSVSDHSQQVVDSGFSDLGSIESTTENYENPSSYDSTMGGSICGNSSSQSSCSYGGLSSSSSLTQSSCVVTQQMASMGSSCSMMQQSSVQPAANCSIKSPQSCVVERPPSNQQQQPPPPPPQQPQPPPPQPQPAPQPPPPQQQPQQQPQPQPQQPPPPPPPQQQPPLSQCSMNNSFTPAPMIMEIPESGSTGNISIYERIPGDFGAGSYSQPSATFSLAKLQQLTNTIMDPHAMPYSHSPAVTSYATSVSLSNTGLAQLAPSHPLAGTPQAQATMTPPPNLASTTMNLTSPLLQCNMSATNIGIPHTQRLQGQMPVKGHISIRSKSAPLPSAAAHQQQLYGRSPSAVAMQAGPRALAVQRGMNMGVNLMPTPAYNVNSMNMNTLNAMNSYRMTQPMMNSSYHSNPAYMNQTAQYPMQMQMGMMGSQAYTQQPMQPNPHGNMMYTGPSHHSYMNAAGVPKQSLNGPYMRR
KAT8, sequence (Q9H7Z6 whole entry): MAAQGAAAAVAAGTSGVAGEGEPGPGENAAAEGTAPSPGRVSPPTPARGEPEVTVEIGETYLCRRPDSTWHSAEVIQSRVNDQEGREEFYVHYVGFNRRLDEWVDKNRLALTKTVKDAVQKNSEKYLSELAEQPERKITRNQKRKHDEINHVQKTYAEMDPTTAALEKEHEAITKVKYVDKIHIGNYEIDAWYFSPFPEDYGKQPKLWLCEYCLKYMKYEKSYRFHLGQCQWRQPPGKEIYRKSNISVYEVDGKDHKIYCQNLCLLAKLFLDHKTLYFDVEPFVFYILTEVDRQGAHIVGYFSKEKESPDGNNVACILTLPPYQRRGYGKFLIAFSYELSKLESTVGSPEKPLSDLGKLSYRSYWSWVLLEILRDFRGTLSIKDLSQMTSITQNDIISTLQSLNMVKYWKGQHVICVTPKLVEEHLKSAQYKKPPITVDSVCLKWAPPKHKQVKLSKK
Procedure for KAT5: (§1) Prepare 10 mM stock solutions in 100% DMSO from solid material • 2. Serial dilute 10 mM, 1 mM or 0.1 mM compound stocks 3-fold in 100% DMSO for 11-point dose response
(§2) Prepare 1× assay buffer containing 10 mM Tris HCL pH 8.0, 2.5 mM NaCl, 0.5 mM EDTA, 0.005% BSG and 0.02% Tween-20 • 2. Dilute Histone peptide (CPC Scientific) and AcCoA (Sigma) together in assay buffer to 2×. • 3. Dilute KAT enzyme in assay buffer to 2×.
(§3) Enzyme reaction • 1. Final reaction conditions for each KAT assay in a 20 ul assay reaction volume: • i. KAT5 25 nM, 1 uM AcCoA, 2 uM H4 1-21 peptide, 30-minute reaction • ii. KAT6A 15 nM, 1 uM AcCoA, 2 uM H3 1-21 peptide, 45-minute reaction • iii. KAT6B 25 nM, 1 uM AcCoA, 2 uM H3 1-21 peptide, 60-minute reaction • iv. KAT7 12.5 nM, 1 uM AcCoA, 2 uM H3 1-21 peptide, 45-minute reaction • v. KAT8 15 nM, 1 uM AcCoA, 2 uM H3 1-21 peptide, 45-minute reaction • 2. Add 0.5 ul of diluted compound to the assay plate (384-well V-bottom polypropylene plates) or 0.5 ul of DMSO for control wells. • 3. Add 10 ul of 2× Histone peptide/2×AcCoA mix to the assay plate. • 4. Add 10 ul of 2× enzyme to the assay plate. • 5. Stop the reaction after the indicated time with the addition of 2 ul of 5% formic acid • 6. Each reaction was analyzed using self-assembled monolayer desorption/ionization time-of-flight mass spectrometry (Mrksich, Milan (2008) Mass Spectrometry of Self-Assembled Monolayers: A New Tool for Molecular Surface Science ACS Nano 2008 2 (1), 7-18; SAMDI Tech, Inc. (Chicago, Ill.)). • 7. Area under the curve (AUC) for both substrate and product peaks was determined for KAT5 at M.W. 2561 [Substrate+H]^+ and 2603 [Product+H]^+ with a +/−1 Da tolerance, respectively • 8. Area under the curve (AUC) for both substrate and product peaks was determined for KAT6a, KAT6B, KAT7 and KAT8 at M.W. 2723 [Substrate+H]^+ and 2765 [Product+H]^+ with a +/−1 Da tolerance, respectively. […] Percent conversion to product was calculated by: AUCProduct/(AUCsubstrate+AUCProduct).
(§4) IC50 values were determined by fitting the % conversion at each inhibitor concentration to the 4-parameter IC50 equation using Pfizer proprietary curve fitting software. • 2. Ki values were determined by fitting the % conversion at each inhibitor concentration to the Morrison equation for tightbinding competitive inhibitors using Pfizer proprietary curve fitting software.
(§5) KAT enzymes were expressed using a baculovirus expression system and purified at Pfizer, La Jolla. […] Acetyl coenzyme A was purchased from Sigma-Aldrich (St. Louis, Mo.). All other biochemical reagents were purchased from Sigma-Aldrich or ThermoFisher Scientific (Waltham, Mass.).
(§6) KAT assays were performed at room temperature in assay buffer containing 1 μM AcCoA, 2 μM histone peptide, 10 mM Tris HCL pH 8.0, 2.5 mM NaCl, 0.5 mM EDTA, 0.005% BSG and 0.02% Tween-20. 10 ul of 2× Histone peptide/AcCoA mix was added to a 384-well V-bottom polypropylene assay plate containing 0.5 ul of serially diluted test compound in 100% dimethyl sulfoxide (DMSO). To start the reaction, 10 ul of 2× enzyme solution was added to the assay plate. KAT assays were terminated after 30-60 minutes with the addition of 2 ul of 5% formic acid. All assays used histone H3 (1-21) peptide except for the KAT5 assay which used histone H4 (1-21) peptide. The final enzyme concentration for each KAT was as follows: KAT5, 25 nM; KAT6A, 15 nM; KAT6B, 25 nM; KAT7, 12.5 nM; KAT8 15 nM. Each reaction was analyzed using self-assembled monolayer desorption/ionization time-of-flight mass spectrometry (Mrksich, Milan (2008) Mass Spectrometry of Self-Assembled Monolayers: A New Tool for Molecular Surface Science ACS Nano 2008 2 (1), 7-18; SAMDI Tech, Inc. (Chicago, Ill.)).
(§7) Area under the curve (AUC) for both substrate and product peaks was determined for KAT5 at M.W. 2561 [Substrate+H]^+ and 2603 [Product+H]^+ with a +/−1 Da tolerance, respectively.
Procedure for KAT6B: as §1, §2, §3, §4, §5, §6, §7
Procedure for KAT7: as §1, §2, §3, §4, §5, §6, §7
Procedure for KAT8: as §1, §2, §3, §4, §5, §6, §7

As for `CCOc1cc(Cn2cccn2)cc2onc(NS(=O)(=O)c3c(OC)cccc3OC)c12` [Example 25], the Ki on KAT6A (setting [1]) is 2.74 nM; on KAT6A (setting [2]) it was 1.83 nM; on KAT6B (setting [3]) it was 4.46 nM; at KAT5 it was 12500 nM; on KAT7 it was 1080 nM; on KAT8 it was 12500 nM.

Regarding `COc1ccc(OC(F)(F)F)cc1S(=O)(=O)Nc1noc2cc(Cn3cccn3)cc(OC)c12` [Example 16], the Ki on KAT6A (setting [1]) turned out to be 1.27 nM; on KAT6A (setting [2]), 0.64 nM; at KAT6B (setting [3]) it was 1.73 nM; at KAT5, 830 nM; at KAT7, 120 nM; at KAT8, 1750 nM.

Turning to `CCOc1cc(C)ccc1S(=O)(=O)Nc1noc2cc(Cn3cccn3)cc(OC)c12` [Example 50], the Ki at KAT6A (setting [1]) came to 0.46 nM; on KAT6A (setting [2]) it was 0.4 nM; on KAT6B (setting [3]) it was 0.98 nM; on KAT5, 260 nM; on KAT7, 20 nM; on KAT8, 350 nM.

Regarding `COc1cccc(OC)c1S(=O)(=O)Nc1noc2cc(Cn3nccn3)cc(OC)c12` [Example 23], the Ki at KAT6A (setting [1]) came out at 1.22 nM; on KAT6A (setting [2]), 1.24 nM; at KAT6B (setting [3]) it was 1.34 nM; on KAT6B (setting [4]) it was 0.87 nM; on KAT5 it was 2070 nM; at KAT7, 40 nM. The inhibitory constant (Ki) at KAT8 was determined as 1970 nM.

For the compound `COc1cccc(OC)c1S(=O)(=O)Nc1noc2cc(Cn3nccc3C)cc(OC)c12` [Example 3, 2,6-dimethoxy-N-{4-methoxy-6-[(5-methyl-1H-pyrazol-1-yl)methyl]-1,2-benzoxazol-3-yl}benzene-1-sulfonamide], the Ki came to 3.79 nM on KAT6A (setting [1]); 1.54 nM on KAT6A (setting [2]); 8.63 nM on KAT6B (setting [4]); 9790 nM at KAT5; 1720 nM at KAT7; 17400 nM at KAT8.

As for `COc1cc(Cn2cccn2)cc2onc(NS(=O)(=O)c3cccc4c(C)ccnc34)c12` [Example 61], the inhibition constant Ki at KAT6A (setting [1]) was found to be 0.95 nM; at KAT6A (setting [2]), 0.92 nM; on KAT6B (setting [3]), 1.56 nM; on KAT5 it was 200 nM; on KAT7, 40 nM; on KAT8 it was 540 nM.

On to `COc1cc(Cn2cccn2)cc2onc(NS(=O)(=O)c3c(C)ccc4cccnc34)c12` [Example 73], for which the inhibition constant Ki worked out at 2.31 nM on KAT6A (setting [1]); 1.7 nM at KAT6A (setting [2]); 1.36 nM at KAT6B (setting [3]); 710 nM at KAT5; 250 nM at KAT7; 3260 nM on KAT8.

Regarding `COc1ccc(S(=O)(=O)Nc2noc3cc(Cn4cccn4)cc(OC)c23)c(OC)c1` [Example 5], the Ki at KAT6A (setting [1]) was found to be 1.11 nM; at KAT6A (setting [2]), 1.38 nM; on KAT6B (setting [4]), 2.68 nM; at KAT5, 530 nM; on KAT7, 80 nM; on KAT8 it was 660 nM.

With `COc1ccc(S(=O)(=O)Nc2noc3cc(Cn4cccn4)cc(OC)c23)cc1C` [Example 84], the Ki was 7.86 nM on KAT6A (setting [1]); 5.61 nM at KAT6A (setting [2]); 12.3 nM on KAT6B (setting [3]); 4630 nM on KAT5; 190 nM at KAT7; 12500 nM at KAT8.

On to `COc1cccc(F)c1S(=O)(=O)Nc1noc2cc(Cn3cccn3)cc(OC)c12` [Example 6], for which the Ki on KAT6A (setting [1]) was found to be 1.5 nM; on KAT6A (setting [2]), 2.32 nM; at KAT6B (setting [4]) it was 2.5 nM; on KAT5, 980 nM; on KAT7, 120 nM; at KAT8, 3320 nM.

With `COc1cc(Cl)ccc1S(=O)(=O)Nc1noc2cc(Cn3cccn3)cc(OC)c12` [Example 71], the Ki worked out at 1.18 nM on KAT6A (setting [1]); 1.17 nM on KAT6A (setting [2]); 2.81 nM on KAT6B (setting [3]); 320 nM at KAT5; 30 nM on KAT7; 1440 nM on KAT8.

Consider `COc1cc(C)ccc1S(=O)(=O)Nc1noc2cc(Cn3cccn3)cc(OC)c12` [Example 47], for which the Ki at KAT6A (setting [1]) came out at 1.14 nM; at KAT6A (setting [2]), 0.49 nM; on KAT6B (setting [3]) it was 1.32 nM; at KAT5, 180 nM; at KAT7, 40 nM; on KAT8 it was 560 nM.

For `COc1cccc(OC)c1S(=O)(=O)Nc1noc2cc(Cn3cccn3)c(Br)cc12` [Example 92, N-{5-bromo-6-[(1H-pyrazol-1-yl)methyl]-1,2-benzoxazol-3-yl}-2,6-dimethoxybenzene-1-sulfonamide], the Ki at KAT6A (setting [1]) is 1.07 nM; on KAT6A (setting [2]), 0.45 nM; on KAT6B (setting [3]) it was 2.73 nM; on KAT5, 110 nM; on KAT7, 30 nM; at KAT8 it was 240 nM.

Consider `COc1cccc(OC)c1S(=O)(=O)Nc1noc2cc(Cn3cccn3)cc(C3CC3)c12` [Example 96], for which the Ki on KAT6A (setting [1]) amounted to 1.58 nM; at KAT6B (setting [3]), 3.67 nM; at KAT5, 11700 nM; on KAT7 it was 900 nM; on KAT8 it was 12500 nM.

For the compound `COc1cc(OC)c(S(=O)(=O)Nc2noc3cc(Cn4cccn4)cc(OC4CC4)c23)c(OC)c1` [Example 26], the Ki on KAT6A (setting [1]) is 8.01 nM; at KAT6A (setting [2]), 3.16 nM; on KAT6B (setting [3]), 12.7 nM; at KAT5, 125000 nM; on KAT7, 7790 nM; at KAT8, 27100 nM.

For the compound `COc1cc(Cn2cccn2)cc2onc(NS(=O)(=O)c3cc(C)cc(F)c3)c12` [Example 75], the Ki at KAT6A (setting [1]) came out at 9.13 nM; at KAT6A (setting [2]), 6.42 nM; on KAT6B (setting [3]), 13.8 nM; on KAT5 it was 5700 nM; at KAT7, 320 nM; at KAT8, 12500 nM.

With `COCc1ccc(OC)c(S(=O)(=O)Nc2noc3cc(Cn4cccn4)cc(OC)c23)c1` [Example 12], the Ki at KAT6A (setting [1]) came to 1.82 nM; at KAT6A (setting [2]), 1.7 nM; at KAT6B (setting [3]) it was 2.14 nM; on KAT6B (setting [4]), 1.88 nM; at KAT5, 1170 nM; at KAT7 it was 920 nM. The Ki on KAT8 came out at 1070 nM.

With `CCc1cc(Cn2cccn2)cc2onc(NS(=O)(=O)c3c(OC)cccc3OC)c12` [Example 95, N-{4-ethyl-6-[(1H-pyrazol-1-yl)methyl]-1,2-benzoxazol-3-yl}-2,6-dimethoxybenzene-1-sulfonamide], the Ki at KAT6A (setting [1]) was found to be 9.88 nM; at KAT6B (setting [3]), 8.35 nM; at KAT5 it was 12500 nM; on KAT7, 4340 nM; on KAT8 it was 3260 nM.

Consider `COc1cccc(OC)c1S(=O)(=O)Nc1noc2cc(Cn3ccnn3)cc(OC)c12` [Example 22], for which the Ki at KAT6A (setting [1]) came out at 16.5 nM; at KAT6B (setting [4]) it was 13.2 nM; at KAT5, 11700 nM; on KAT7, 12900 nM; at KAT8, 17400 nM.

Regarding `COc1ccc(C)cc1S(=O)(=O)Nc1noc2cc(Cn3cccn3)cc(OC)c12` [Example 17], the Ki came out at 0.7 nM at KAT6A (setting [1]); 0.51 nM on KAT6A (setting [2]); 1.21 nM at KAT6B (setting [3]); 150 nM on KAT5; 90 nM on KAT7; 220 nM on KAT8.

For `COc1cc(C2CC2)cc(OC)c1S(=O)(=O)Nc1noc2cc(Cn3cccn3)cc(OC)c12` [Example 24], the inhibition constant Ki at KAT6A (setting [1]) stood at 1.01 nM; at KAT6A (setting [2]) it was 0.46 nM; on KAT6B (setting [3]) it was 1.89 nM; at KAT5, 190 nM; at KAT7, 20 nM; at KAT8, 160 nM.

Broadly, the Ki is a dissociation constant, usually derived from enzyme kinetics or from competition with a known ligand.
